Results from patent US20250041245A1, “ENDOXIFEN FOR TREATMENT OF CANCERS” (Atossa Therapeutics, Inc., priority 2021, published 2025).

Columns and labels:
Assay type in all cases: cell-based, human
Parameters in all cases: key to Personalization Category: Personalization categories range from High, Good, Moderate, Low, to None; Personalization categories range from High, Good, Moderate, Low, to None; Personalization categories range from High, Good, Moderate, Low, to None; Personalization categories range from High, Good, Moderate, Low, to None; Personalization categories range from High, Good, Moderate, Low, to None; key to Sensitivity Category: Sensitivity categories range from High, Good, Moderate, Low, to None; Sensitivity categories range from High, Good, Moderate, Low, to None; Sensitivity categories range from High, Good, Moderate, Low, to None; Sensitivity categories range from High, Good, Moderate, Low, to None; Sensitivity categories range from High, Good, Moderate, Low, to None; AUC: unit not given beside the values
[1] = tested on: patient-derived tumor organoids (PDTOs), rectal cancer; test: Endoxifen screen in PDTOs: rectal cancer
Procedure: (§1) This example describes screening endoxifen in patient-derived tumor organoids. Endoxifen was tested as a single agent on tumor organoids derived from patients diagnosed with various cancer types using a personalized cancer treatment screening assay (PARIS© Test, SEngine Precision Medicine). The screen utilized patient-derived tumor organoids (PDTOs) along with high-throughput drug screening and machine learning-guided data analysis to quantify the efficacy of endoxifen against samples derived from individual patients diagnosed with various cancer types. PDTOs are self-organizing, three-dimensional organoid structures that recapitulate structural, functional, and genomic aspects of in vivo organs. The PDTOs were grown in culture from patient tumor biopsy samples.
(§2) Fresh patient biopsy samples received following surgery were cleaned and purified. Immune cells (e.g., lymphocytes, blood cells), cancer-associated fibroblasts, and other non-tumor cells were removed to establish pure PDTOs for endoxifen testing. The tumor organoids were grown and expanded by supplying organ- and patient-specific growth factors and nutrients. The PDTOs were treated with increasing concentrations of endoxifen ranging from about 30 nM to about 10 μM, and the drug response was measured using a luminescence readout. A lower luminescence was indicative of a stronger drug response.
(§3) The results were analyzed using a “SEngine Precision Medicine” (SPM) scoring system to assess the sensitivity and personalization of each tumor organoid to endoxifen. The SPM score correlates with clinical outcomes, such that a higher SPM score for a specific PDTO-drug combination predicts a more favorable clinical outcome following treatment of the corresponding patient with the tested drug.
(§4) This example describes testing endoxifen efficacy against 17 distinct cancer types in patient-derived tumor organoids (PDTOs). Screening of PDTOs was performed as described in EXAMPLE 1. For each PDTO sample, the drug response was measured using a luminescent readout over a range of endoxifen concentrations. The drug response was evaluated based on the area under the fitted dose response curve (AUC) and the SPM scoring system. AUC values were normalized for each PDTO. Briefly, data points at each drug concentration were first normalized to a negative control, then a dose response drug curve was approximated using a four-parameter logistic model fitted to the normalized data points. The area under the curve was calculated from the normalized curve. Normalization allowed for comparison of AUC values between patient samples. The SPM scores were based on machine learning models that incorporate values for how well the drug kill patient cells (sensitivity metric), the relative drug responses of a patient to all other patients in a sample database (personalization metric), and knowledge of clinical outcomes for patients that had been evaluated with the personalized cancer screening assay (PARIS® Test, SEngine Precision Medicine).
(§5) The SPM scoring system evaluated whether a PDTO was unresponsive or responsive to endoxifen and the degree of drug response for PDTOs that were responsive to endoxifen. […] The sensitivity category was determined from the sensitivity metric and is a measure of overall cell death of a patient's cells in response to endoxifen at six concentrations. […]

[2] = tested on: patient-derived tumor organoids (PDTOs), primary peritoneal carcinoma; test: Endoxifen screen in PDTOs: primary peritoneal carcinoma
Procedure: as §1, §2, §3, §4, §5

[3] = tested on: patient-derived tumor organoids (PDTOs), thyroid cancer; test: Endoxifen screen in PDTOs: thyroid cancer
Procedure: as §1, §2, §3, §4, §5

For `CC/C(=C(\c1ccc(O)cc1)c1ccc(OCCNC)cc1)c1ccccc1` [Endoxifen, 4-hydroxy-N-desmethyltamoxifen], the IC50 ([1]; Homo sapiens, Patient 19, four-parameter logistic fit) was 3.9 µM, the “Personalization Category” value ([1]; Patient 19) was “Low” and the “Sensitivity Category” value ([1]; Patient 19) was “Low”. The AUC ([1]; Patient 19, normalized area under fitted dose response curve) was 0.8614, the “SPM Score” value ([1]; Patient 19, score range 1-15) was 9 and the IC50 ([2]; Homo sapiens, patient 72, four-parameter logistic fit) was 9.37 µM. For the same compound, the “Personalization Category” value ([2]; patient 72) was “None”, the “Sensitivity Category” value ([2]; patient 72) was “None” and the AUC ([2]; patient 72, normalized area under fitted dose response curve) was 0.9623. For the same compound, the “SPM Score” value ([2]; patient 72, score range 1-15) was 1, the IC50 ([3]; Homo sapiens, patient 4, four-parameter logistic fit) was 7.1 µM and the “Personalization Category” value ([3]; patient 4) was “None”. For the same compound, the “Sensitivity Category” value ([3]; patient 4) was “None”, the AUC ([3]; patient 4, normalized area under fitted dose response curve) was 0.9109 and the “SPM Score” value ([3]; patient 4, score range 1-15) was 1.
